Experimental data reported in PubChem BioAssay (NCI).
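Five compound concentrations were applied to cells in 96-well plates for 48 hours; endpoints were derived by simple linear interpolation of the resulting dose-response curve. GI50 marks 50% less growth. The concentration for full growth arrest is given as TGI.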

Columns and labels:
Assay in all cases: NCI-60 cell line screen, 48 h
U251 CNS = test system: U251 CNS
SK-MEL-2 melanoma = test system: SK-MEL-2 melanoma
OVCAR-4 ovarian = test system: OVCAR-4 ovarian
OVCAR-3 ovarian = test system: OVCAR-3 ovarian
786-0 renal = test system: 786-0 renal
OVCAR-5 ovarian = test system: OVCAR-5 ovarian
SF-295 CNS = test system: SF-295 CNS
NCI-H522 lung = test system: NCI-H522 lung
HCT-15 colon = test system: HCT-15 colon
MALME-3M melanoma = test system: MALME-3M melanoma

Compound | GI50 (U251 CNS) | TGI (U251 CNS) | GI50 (SK-MEL-2 melanoma) | TGI (SK-MEL-2 melanoma) | GI50 (OVCAR-4 ovarian) | TGI (OVCAR-4 ovarian) | GI50 (OVCAR-3 ovarian) | TGI (OVCAR-3 ovarian) | GI50 (786-0 renal) | TGI (786-0 renal) | GI50 (OVCAR-5 ovarian) | TGI (OVCAR-5 ovarian) | GI50 (SF-295 CNS) | TGI (SF-295 CNS) | GI50 (NCI-H522 lung) | TGI (NCI-H522 lung) | GI50 (HCT-15 colon) | TGI (HCT-15 colon) | GI50 (MALME-3M melanoma) | TGI (MALME-3M melanoma)
Cc1cc(NC(=O)c2ccc(NS(=O)(=O)CCO)cc2N2CCC3(CC2)CC3)nc(N2CCC(F)(F)CC2)n1 | 1.5 µM | 22.7 µM | 15.8 µM | 31.1 µM | 14.2 µM | 27.7 µM | 0.0365 µM | 2.49 µM | 14.9 µM | 30.6 µM | 11.4 µM | 23.6 µM | 12.3 µM | 27.3 µM | 12.9 µM | 27.3 µM | 4.71 µM | 20.5 µM | 13.9 µM | 27.8 µM
C/C(CC(=O)CCCC(=O)Nc1ccc(Cl)cc1Cl)=N/NC(=O)CC#N |  | > 100 µM |  | > 100 µM |  | > 100 µM |  | > 100 µM |  | > 100 µM |  | > 100 µM |  | > 100 µM |  |  |  | > 100 µM |  | > 100 µM
Cc1ccc(-c2csc(N(C(=O)N3CCN(c4cc5c(cc4F)c(=O)c(C(=O)O)cn5C4CC4)CC3)c3ccccc3)n2)cc1 | 0.368 µM | 6.73 µM | 0.344 µM | 1.75 µM |  |  | 0.391 µM | > 100 µM | 0.292 µM | 1.83 µM |  |  | 0.303 µM | 1.86 µM | 0.292 µM | > 100 µM |  |  |  | 
COc1ccc(NC(=O)C(=O)C(CC2C(=O)NC(=S)NC2=O)C(=O)c2ccc3ccccc3c2)c([N+](=O)[O-])c1 (stereo not given) |  | > 100 µM |  | > 100 µM |  | > 100 µM |  | > 100 µM |  | > 100 µM |  | > 100 µM |  | > 100 µM |  | > 100 µM |  | > 100 µM |  | 
COc1ccc(C(=S)c2cc(OC)c(OC)c(OC)c2)cc1OC(=O)CCl | 0.0341 µM | > 100 µM | 33.1 µM | > 100 µM | 0.073 µM | > 100 µM | 0.0227 µM | 0.0813 µM | 0.183 µM | > 100 µM | 3.32 µM | > 100 µM | 0.0356 µM | > 100 µM |  |  | < 0.01 µM | > 100 µM | 0.58 µM | > 76.6 µM
CCOC(=O)C1Cc2c(ccc(OC)c2OC)C(=O)C1N (stereo not given) |  | > 100 µM |  | > 100 µM |  | > 100 µM |  | > 100 µM |  | > 100 µM |  | > 100 µM |  | > 100 µM |  | > 100 µM |  | > 100 µM |  | > 100 µM
Nc1ncc(-c2cnn(C3CCNCC3)c2)cc1-c1nc2ccccc2o1 | 1.48 µM | 3.26 µM | 1.1 µM | 2.72 µM | 1.3 µM | 3.53 µM | 1.53 µM | 3.52 µM | 1.4 µM | 2.92 µM | 3.28 µM | 11.5 µM | 1.54 µM | 3.43 µM | 0.757 µM | 2.4 µM | 0.508 µM | 2.5 µM | 1.72 µM | 3.37 µM
CCOC(=O)C12CCCC1(O)N(NC(=O)c1cccc(Cl)c1)C(C)=C2C(=O)OC (stereo not given) |  | > 100 µM |  | > 100 µM |  | > 100 µM |  | > 100 µM |  | > 100 µM |  | > 100 µM |  | > 100 µM |  | > 100 µM |  | > 100 µM |  | > 100 µM
C[C@]12CCC[C@H](OC=O)C1(O)C[C@H](C(=O)O)CC2 (stereo not given in full) |  | > 100 µM |  | > 100 µM |  | > 100 µM |  | > 100 µM |  | > 100 µM |  | > 100 µM |  | > 100 µM |  | > 100 µM |  | > 100 µM |  | > 100 µM
CS(=O)(=O)CCNCc1ccc(-c2ccc3ncnc(Nc4ccc(OCc5ccccc5)c(C(F)(F)F)c4)c3c2)o1 | 4.49 µM | 8.92 µM | 5.68 µM | 11.4 µM | 10.3 µM | > 25 µM | 7.37 µM | 19.2 µM | 5.32 µM | 11 µM | 4.87 µM | 12.5 µM | 5.1 µM | 10.6 µM | 5.02 µM | 9.94 µM | 4.65 µM | 10.2 µM | 4.57 µM | 9.53 µM
C=C(C)C1CC=C(C(=O)O)CC1 (stereo not given) |  | 2630 µM |  | 3220 µM |  | > 5000 µM |  | 1660 µM |  | 4700 µM |  | > 5000 µM |  | > 5000 µM |  | 1830 µM |  | 1670 µM |  | 1630 µM
COC1=CC(=O)c2ccc(C(C)C)cc2C1(C)C1=NC(C)(C)CO1 (stereo not given) |  | > 100 µM |  | > 100 µM |  | > 100 µM |  | > 100 µM |  | > 100 µM |  |  |  | > 100 µM |  | > 100 µM |  | > 100 µM |  | > 100 µM
O=C(O)/C(Cl)=C(\Cl)Nc1cccc(C(F)(F)F)c1 |  | > 100 µM |  |  |  | > 100 µM |  | > 100 µM |  | > 100 µM |  |  |  | > 100 µM |  |  |  | > 100 µM |  | > 100 µM
O=c1[nH]cnc2c(C3OC(CO)C(O)C3O)[nH]nc12 (stereo not given) |  | > 100 µM |  |  |  | 48.6 µM |  | 53.5 µM |  | > 100 µM |  | > 100 µM |  | > 100 µM |  | 42.7 µM |  | > 100 µM |  | > 100 µM
CC(=O)[O-].CC(=O)[O-].[Mn+2].c1ccc(/C(=N\Nc2ccccn2)c2ccccn2)cc1 |  | 8.15 µM |  |  |  | 24.5 µM |  | 0.00913 µM | 0.097 µM | 13.8 µM |  |  |  | 16.9 µM | 0.0289 µM | 0.277 µM | 0.0432 µM | 16.1 µM | 0.0362 µM | 16.8 µM
Cc1cc(N(CCC#N)CCC#N)ccc1/C=C1/CN(N2C(=O)/C(=C/c3ccc(N(CCC#N)CCC#N)cc3C)N=C2c2ccccc2)C(c2ccccc2)=N1 |  | > 100 µM |  |  |  | > 100 µM |  | > 100 µM |  | > 100 µM |  | > 100 µM |  | > 100 µM |  | > 100 µM |  | > 100 µM |  | > 100 µM
O=c1ncc(-c2ccc(C(F)(F)F)cc2)c(NC2CCCCCC2)[nH]1 |  |  |  |  | 21.3 µM | 77.5 µM | 17.2 µM | 34.6 µM | 23.6 µM | 52.4 µM | 22.9 µM | 48.3 µM | 17 µM | 34 µM | 19.7 µM | 44.4 µM | 22.1 µM | 64.6 µM | 17.2 µM | 33.7 µM
